Measured values reported in patent US20090087845A1, “Genetic Markers Of True Low Birth Weight” (priority 2005, published 2009).
Values joined by “and” are separate entries in the source; they are usually repeats but may differ in a detail not shown here. Equal entries are not always repeated.

System: placental gene expression
Experiment: Placental gene expression (Affymetrix Rat Genome Chip 230.2) after SSRI (fluoxetine) exposure throughout gestation
Format: in vivo
Conditions: SSRI exposure during gestation
Procedure: Gene expression data from pregnant rats under different forms of dietary restriction was gathered. […] (N=8) • Group 2 (CR50): Rats Given 50% of their Normal Daily Intake of Food. (N=5) • Group 3 (CR70): Rats Given 70% of their Normal Daily Intake of Food. […] (N=6) Placentas from the rats of each Group were harvested on Day 21 of gestation. RNA was extracted and gene expression was measured based on hybridization of RNA to Affymetrix Rat Genome Chips™ (230.2) (Affymetrix, Santa Clara, Calif.).
In order to determine whether placental gene expression profiling can be used to identify other prenatal exposures such as toxicants and drugs, a group of rats with drug exposure was monitored as described above. […] As with control, CR50, CR70, and HF groups, placentas from the mothers were sampled after 21 days of gestation and gene expression monitored utilizing an Affymetrix Rat Genome Chip.

CNCCC(Oc1ccc(C(F)(F)F)cc1)c1ccccc1 (stereo not shown) [fluoxetine, Fluoxetine]
Probeset 1367856_at expression: 9.227 and 9.529 and 9.365 and 9.385 and 9.39 and 9.762
Probeset 1367877_at expression: 10.9 and 11 and 11.21 and 11.25 and 10.7225 and 10.35
Probeset 1368083_at expression: 8.132 and 7.967 and 8.206 and 8.272 and 8.391 and 8.145
Probeset 1368824_at expression: 8.826 and 8.855 and 9.531 and 9.13 and 8.806 and 9.976
Probeset 1369754_a_at expression: 8.0392 and 8.245 and 7.92 and 7.959 and 8 and 8.033
Probeset 1369775_at expression: 8.114 and 8.469 and 8.777 and 8.329 and 7.897 and 9.185
Probeset 1370293_at expression: 5.003 and 5.146 and 4.947 and 4.866 and 4.888 and 5.155
Probeset 1370317_at expression: 8.087 and 8.102 and 8.255 and 8.308 and 8.15 and 8.491
Probeset 1370521_at expression: 8.446 and 8.335 and 8.321 and 8.443 and 8.486 and 8.352
Probeset 1370682_at expression: 5.234 and 5.326 and 5.095 and 5.171 and 5.242 and 5.482
Probeset 1370766_at expression: 4.942 and 4.938 and 5.166 and 5.489 and 5.322 and 4.712
Probeset 1370918_a_at expression: 11.31 and 11.2792 and 11.25 and 11.37 and 11.45 and 11.49
Probeset 1370983_at expression: 5.843
Probeset 1371435_at expression: 11.01 and 10.91 and 11.23 and 11.08 and 10.99 and 11.27
Probeset 1372141_at expression: 9.139 and 9.134 and 9.292 and 9.347 and 9.239 and 9.295
Probeset 1373319_at expression: 9.055 and 9.237 and 9.183 and 9.332 and 9.182 and 9.352
Probeset 1373396_at expression: 9.155 and 8.864 and 9.203 and 9.102 and 8.933 and 8.366
Probeset 1373572_at expression: 7.868 and 7.822 and 7.63 and 7.991 and 8.104 and 8.161
Probeset 1373647_at expression: 8.371 and 8.23 and 8.672 and 8.447 and 8.268 and 8.235
Probeset 1373702_at expression: 8.332 and 8.305 and 8.162 and 8.514 and 8.322 and 7.814
Probeset 1373804_at expression: 6.825 (2×) and 6.702 and 7.208 and 7.238 and 7.527
Probeset 1374112_at expression: 6.448 and 6.479 and 6.686 and 6.529 and 6.5 and 6.601
Probeset 1374739_at expression: 8.91 and 8.84 and 9.07 and 9.074 and 8.858 and 8.669
Probeset 1375178_at expression: 5.861 and 5.694 and 5.836 and 5.574 and 5.873 and 5.942
Probeset 1375407_at expression: 4.147 and 4.198 and 4.162 and 4.179 and 4.18 and 4.21
Probeset 1376294_at expression: 8.241 and 8.136 and 8.122 and 8.206 and 8.031 and 7.939
Probeset 1376622_at expression: 9.179 and 9.106 and 9.158 and 9.007 and 8.828 and 8.85
Probeset 1376661_at expression: 9.243 and 8.93 and 9.166 and 9.213 and 9.04 and 8.674
Probeset 1377210_at expression: 5.248 and 4.863 and 5.701 and 5.485 and 5.015 and 5.172
Probeset 1377365_at expression: 4.943 and 5.014 and 4.818 and 5.177 and 5.084 and 4.987
Probeset 1377621_at expression: 9.058 and 9.148 and 9.272 and 8.936 and 8.844 and 9.114
Probeset 1377746_at expression: 6.748 and 6.563 and 6.855 and 6.829 and 6.772 and 6.746
Probeset 1378200_at expression: 3.497 and 3.656 and 3.453 and 3.611 and 3.537 and 3.653
Probeset 1378318_at expression: 7.345 and 7.18 and 7.153 and 7.373 and 7.289 and 7.671
Probeset 1378906_at expression: 4.061 and 4.197 and 4.196 and 4.263 and 4.048 and 4.099
Probeset 1378992_at expression: 3.715 and 3.63 and 3.611 and 3.744 and 3.567 and 3.655
Probeset 1379691_at expression: 5.195 and 5.15 and 5.65 and 5.355 and 5.021 and 5.425
Probeset 1379822_at expression: 4.426 and 4.487 and 4.337 and 4.483 and 4.602 and 4.654
Probeset 1379827_at expression: 7.363 and 6.823 and 7.052 and 7.077 and 7.08 and 7.626
Probeset 1379963_at expression: 6.946 and 6.646 and 6.73 and 6.72 and 6.71 and 6.95
Probeset 1380175_at expression: 5.161 (2×) and 4.962 and 5.291 and 5.16 and 5.03
Probeset 1380454_at expression: 6.241 and 5.984 and 6.009 and 5.948 and 5.974 and 6.055
Probeset 1380887_at expression: 4.924
Probeset 1381074_at expression: 4.46 and 4.412
Probeset 1381130_at expression: 3.907 and 4.131 and 4.062 and 4.007 and 3.997 and 4.159
Probeset 1381286_at expression: 5.782 and 5.606 and 5.685 and 5.499 and 5.475 and 5.605
Probeset 1381456_at expression: 5.51 and 5.294 and 5.392 and 5.362 and 5.479 and 5.538
Probeset 1381492_at expression: 3.395 and 3.359 and 3.315 and 3.411 and 3.371 and 3.465
Probeset 1381950_at expression: 3.272 and 3.248 and 3.336 and 3.304 and 3.319 and 3.328
Probeset 1382156_at expression: 4.657 and 4.812 and 4.826 and 4.712 and 4.874 and 4.952
Probeset 1382513_at expression: 6.674 and 6.665 and 6.481 and 6.607 and 6.737 and 6.659
Probeset 1382670_at expression: 8.608 and 8.307 and 8.399 and 8.688 and 8.346 and 8.2197
Probeset 1383054_at expression: 8.808 and 9.017 and 9.07 and 8.991 and 8.711 and 9.326
Probeset 1383300_at expression: 8.006 and 8.007 and 8.362 and 8.2749 and 8.022 and 8.359
Probeset 1383309_at expression: 8.849 and 8.69 and 8.969 and 8.891 and 8.934 and 8.618
Probeset 1383329_at expression: 5.895 and 5.614 and 5.92 and 5.669 and 5.593 and 5.826
Probeset 1383443_at expression: 5.684 and 5.567 and 5.755 and 5.468 and 5.752 and 5.677
Probeset 1383599_at expression: 8.081 and 7.626 and 7.843 and 7.829 and 8.127 and 9.642
Probeset 1383670_at expression: 6.71 and 6.607 and 6.621 and 6.709 and 6.712 and 7.383
Probeset 1384367_at expression: 5.722 and 5.628 and 5.604 and 6.025 and 5.735 and 5.669
Probeset 1384528_at expression: 6.295 and 6.64 and 6.851 and 6.656 and 6.5 and 7.042
Probeset 1384573_at expression: 8.901 and 8.97 and 9.056 and 9.081 and 8.766 and 9.188
Probeset 1384849_at expression: 4.389 and 4.321 and 4.282 and 4.323 and 4.508 and 4.489
Probeset 1385074_at expression: 5.671 and 5.563 and 5.768 and 5.526 and 5.195 and 5.636
Probeset 1385113_at expression: 7.347 and 7.428 and 7.301 and 7.161 and 7.417 and 7.088
Probeset 1385137_at expression: 6.487 and 6.691 and 6.525 and 6.507 and 6.657 and 6.515
Probeset 1385290_at expression: 5.912 and 5.666 and 5.934 and 5.765 and 5.855 and 6.05
Probeset 1385386_at expression: 3.88 and 3.887 and 3.724 and 3.939 and 3.964 and 3.997
Probeset 1385391_at expression: 3.906
Probeset 1385676_at expression: 7.767 and 7.784 and 7.6 and 7.923 and 7.825 and 7.957
Probeset 1385790_at expression: 8.874 and 8.703 and 8.936 and 8.711 and 8.797 and 8.832
Probeset 1385967_at expression: 7.8281 and 7.604 and 7.783 and 7.853 and 7.739 and 7.587
Probeset 1386125_at expression: 6.722 and 6.815 and 6.394 and 6.647 and 6.915 and 6.555
Probeset 1387136_at expression: 6.858 and 6.879 and 6.716 and 6.836 and 6.917 and 6.91
Probeset 1387693_a_at expression: 6.346 and 5.564 and 5.898 and 6.298 and 6.19 and 6.092
Probeset 1387694_at expression: 4.568 (2×) and 4.709 and 4.717 and 4.669 and 4.592
Probeset 1387822_at expression: 6.542 and 6.446 and 6.117 and 6.626 and 6.634 and 6.309
Probeset 1387836_at expression: 6.084 and 6.195 and 5.76 and 6.333 and 6.223 and 6.427
Probeset 1387914_at expression: 7.114 and 7.095 and 6.97 and 7.203 and 7.171 and 6.743
Probeset 1388091_at expression: 4.883 and 4.896 and 4.86 and 4.66 and 4.763 and 5.101
Probeset 1388131_at expression: 5.883 and 5.853 (2×) and 5.899 and 5.7 and 5.653
Probeset 1388363_at expression: 8.334 and 8.137 and 8.387 and 8.484 and 8.155 and 8.23
Probeset 1388396_at expression: 8.583 and 8.468 and 8.633 and 8.876 and 8.642 and 8.158
Probeset 1388669_at expression: 7.593 and 7.653 and 7.716 and 7.739 and 7.557 and 7.506
Probeset 1389095_at expression: 4.796 and 4.404 and 4.732 and 4.907 and 5.027 and 4.473
Probeset 1389213_at expression: 8.131 and 8.028 and 7.745 and 7.914 and 8.246 and 8.135
Probeset 1389599_at expression: 7.15 and 6.872 and 6.834 and 7.063 and 7.294 and 6.817
Probeset 1389938_at expression: 3.471 and 3.408 and 3.488 and 3.5 and 3.516 and 3.49
Probeset 1390406_at expression: 10.34 and 10.3557 and 10.5 and 10.19 and 10.46 and 10.31
Probeset 1390477_at expression: 5.455 and 5.297 and 5.408 and 5.153 and 5.575 and 5.333
Probeset 1390592_at expression: 7.922 and 8.042 and 8.388 and 8.1 and 7.908 and 8.783
Probeset 1390603_at expression: 7.171 and 7.008 and 7.6 and 6.976 and 7.243 and 7.286
Probeset 1390649_at expression: 7.938 and 7.688 and 7.673 and 7.791 and 7.858 and 7.491
Probeset 1390892_at expression: 5.596 and 5.604 and 5.507 and 5.408 and 5.571 and 5.5082
Probeset 1391078_at expression: 8.106 and 8.271 and 8.74 and 8.604 and 8.221 and 9.079
Probeset 1391283_at expression: 5.834 and 5.874 and 5.96 and 5.702 and 5.598 and 5.898
Probeset 1391376_at expression: 7.65 and 7.982 and 7.683 and 7.518 and 7.491 and 7.602
